Measured values taken from US20150315188A1, “COMPOUNDS AND METHODS FOR TREATMENT OF HYPERTENSION” (MEDIVATION TECHNOLOGIES, INC., priority 2012, published 2015).

Columns and labels:
[1] = target: T1, Human adrenergic α1B receptor (Homo sapiens, UniProt P35368); experiment: Radioligand binding, adrenergic α1B (Protocol Group B); parameters: purchased Milipore (Millipore); settings: Protocol Group B; for Percentage inhibition of ligand binding, Adrenergic α1B (0.1 μM) / inhibition at 0.1 µM: 0.1 μM compound; for Percentage inhibition of ligand binding, Adrenergic α1B (0.3 μM) / inhibition at 0.3 µM: 0.3 μM compound; for inhibition at 0.1 µM: read-out: Percentage inhibition of ligand binding, Adrenergic α1B (0.1 μM); for inhibition at 0.3 µM: read-out: Percentage inhibition of ligand binding, Adrenergic α1B (0.3 μM)
T1 sequence (P35368 1-520): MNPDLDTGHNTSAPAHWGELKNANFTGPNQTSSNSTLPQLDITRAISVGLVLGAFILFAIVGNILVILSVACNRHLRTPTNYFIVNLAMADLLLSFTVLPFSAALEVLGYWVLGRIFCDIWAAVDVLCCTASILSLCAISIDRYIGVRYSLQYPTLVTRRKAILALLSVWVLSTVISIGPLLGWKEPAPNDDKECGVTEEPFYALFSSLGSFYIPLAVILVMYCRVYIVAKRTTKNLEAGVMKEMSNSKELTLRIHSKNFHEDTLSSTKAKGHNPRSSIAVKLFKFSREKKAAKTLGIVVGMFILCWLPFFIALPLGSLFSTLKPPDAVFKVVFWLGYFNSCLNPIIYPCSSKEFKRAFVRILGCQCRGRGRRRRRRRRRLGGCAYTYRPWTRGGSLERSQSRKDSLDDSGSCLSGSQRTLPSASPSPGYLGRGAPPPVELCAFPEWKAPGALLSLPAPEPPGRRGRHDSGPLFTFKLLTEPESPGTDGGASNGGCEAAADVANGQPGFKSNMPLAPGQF
Method in brief: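 Values are percent inhibition of specific [3H]prazosin (0.3 nM) binding or estimated Ki, from filtration counting. Human α1B recombinant membranes, Tris-HCl pH 7.4 buffer with MgCl2 and EDTA, 60 min at 25 °C, 1% DMSO vehicle; 10 μM prazosin defined nonspecific binding.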

[2] = target: T2, Human adrenergic α2B receptor (Homo sapiens, UniProt P18089); experiment: Radioligand binding, adrenergic α2B (Protocol Group B); parameters: purchased Milipore (Millipore); settings: Protocol Group B; for Percentage inhibition of ligand binding, Adrenergic α2B (10 nM) / inhibition at 0.01 µM: 10 nM compound; for Percentage inhibition of ligand binding, Adrenergic α2B (10 nM): 0.01 µM; for Percentage inhibition of ligand binding, Adrenergic α2B (30 nM) / inhibition at 0.03 µM: 30 nM compound; for Percentage inhibition of ligand binding, Adrenergic α2B (30 nM): 0.03 µM; for Ki: estimated Ki, read-out: Ki α2B; for inhibition at 0.01 µM: read-out: Percentage inhibition of ligand binding, Adrenergic α2B (10 nM); for inhibition at 0.03 µM: read-out: Percentage inhibition of ligand binding, Adrenergic α2B (30 nM); for inhibition at 0.1 µM: read-out: Percentage inhibition of ligand binding, Adrenergic α2B (0.1 μM)
T2 sequence (P18089 1-450): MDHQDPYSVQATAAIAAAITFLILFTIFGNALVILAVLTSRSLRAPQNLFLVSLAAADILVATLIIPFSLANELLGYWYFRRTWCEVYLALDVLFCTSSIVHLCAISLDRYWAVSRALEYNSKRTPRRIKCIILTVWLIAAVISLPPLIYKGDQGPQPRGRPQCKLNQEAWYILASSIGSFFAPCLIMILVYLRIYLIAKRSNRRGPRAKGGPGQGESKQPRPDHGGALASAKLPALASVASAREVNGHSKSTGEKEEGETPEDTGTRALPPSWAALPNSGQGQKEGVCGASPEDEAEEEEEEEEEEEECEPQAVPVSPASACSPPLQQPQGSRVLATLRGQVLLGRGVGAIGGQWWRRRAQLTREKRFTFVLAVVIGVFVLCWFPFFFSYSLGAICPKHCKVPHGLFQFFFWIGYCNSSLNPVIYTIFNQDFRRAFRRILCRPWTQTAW
Method in brief: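 Compounds at various concentrations in 1% DMSO were tested on recombinant membranes in Tris-HCl pH 7.4 buffer containing MgCl2, CaCl2 and 0.2% BSA.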

[3] = target: T3, Human adrenergic α2A receptor (Homo sapiens, UniProt P08913); experiment: Radioligand binding, adrenergic α2A (Protocol Group B); parameters: purchased Milipore (Millipore); settings: Protocol Group B; for Percentage inhibition of ligand binding, Adrenergic α2A (0.1 μM) / inhibition at 0.1 µM: 0.1 μM compound; for Percentage inhibition of ligand binding, Adrenergic α2A (0.3 μM) / inhibition at 0.3 µM: 0.3 μM compound; for inhibition at 0.1 µM: read-out: Percentage inhibition of ligand binding, Adrenergic α2A (0.1 μM); for inhibition at 0.3 µM: read-out: Percentage inhibition of ligand binding, Adrenergic α2A (0.3 μM)
T3 sequence (P08913 1-465): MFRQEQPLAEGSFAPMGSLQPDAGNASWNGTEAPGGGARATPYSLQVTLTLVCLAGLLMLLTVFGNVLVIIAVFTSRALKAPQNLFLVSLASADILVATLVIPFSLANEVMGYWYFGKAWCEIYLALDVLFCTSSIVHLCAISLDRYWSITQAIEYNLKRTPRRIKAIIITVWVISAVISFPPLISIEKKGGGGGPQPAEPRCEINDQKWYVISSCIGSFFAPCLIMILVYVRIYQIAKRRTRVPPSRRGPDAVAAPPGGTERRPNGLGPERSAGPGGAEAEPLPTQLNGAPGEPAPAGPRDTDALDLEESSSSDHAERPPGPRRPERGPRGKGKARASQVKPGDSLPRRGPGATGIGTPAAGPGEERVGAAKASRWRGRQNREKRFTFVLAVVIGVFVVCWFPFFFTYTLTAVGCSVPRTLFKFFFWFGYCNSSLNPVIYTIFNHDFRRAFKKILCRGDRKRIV
Method in brief: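 Compounds (1% DMSO vehicle, various concentrations) competed against 2 nM [^3H]MK-912 on recombinant receptor membranes for 60 min at 25° C, Tris-HCl pH 7.4 buffer with Mg2+, Ca2+, BSA. Bound radioligand filtered and counted; 10 μM rauwolscine set nonspecific binding. Values: percent inhibition of specific binding or estimated Ki.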

[4] = target: T2, Human adrenergic α2B receptor; experiment: β-Arrestin GPCR functional assay, adrenergic α2B (Protocol B); format: cell-based; settings: β-arrestin, antagonist vs nor-epinephrine EC80; read-out: IC50 Adrenergic α2B
Experimental: To evaluate the activity of compounds in β-Arrestin GPCR functional assays, recombinant CHO cell line (DiscoveRX), over expressed with human adrenergic α2B receptor were used. The experiment was done with kit of DiscoveRX as per recommended protocol of the supplier. Cells were harvested from culture flask using cell dissociation solution (CDS) and plated at a density of 12,000 cells/well in CP reagent (supplied with the kit) in a half area 96-well white polystyrene plate. After 24 h incubation at 37° C., compounds at various concentrations in 1% (final) DMSO were charged to the cells for 30 min at 37° C. Active nor-epinephrine (-NE) at its EC80 concentrations (50 nM) were then added to the cells and incubated for another 90 min at 37° C. Detection mix was prepared by mixing of Path Hunter cell assay buffer, Emerald II solution and Galactone star solution in a ratio of 19:5:1 and incubated with the cells for 60 min at RT in the dark. The reading was taken in Envision at luminescence mode. Biochemical assay results are presented as the percent Inhibition in Table B2a, or IC50 values in Table B2b.

| Percentage inhibition of ligand binding, Adrenergic α1B (0.1 μM) ([1]; 0.1 µM) | Percentage inhibition of ligand binding, Adrenergic α1B (0.3 μM) [1] | Percentage inhibition of ligand binding, Adrenergic α2B (10 nM) [2] | Percentage inhibition of ligand binding, Adrenergic α2B (30 nM) [2] | Ki [2] | Percentage inhibition of ligand binding, Adrenergic α2A (0.1 μM) [3] | Percentage inhibition of ligand binding, Adrenergic α2A (0.3 μM) [3] | IC50 [4] | inhibition at 0.1 µM [1] | inhibition at 0.3 µM [1] | inhibition at 0.01 µM [2] | inhibition at 0.03 µM [2] | inhibition at 0.1 µM [3] | inhibition at 0.3 µM [3] | inhibition at 0.1 µM ([2]; 0.1 μM compound) | Percentage inhibition of ligand binding, Adrenergic α2B (0.1 μM) ([2]; 0.1 μM compound, 0.1 µM) | Percentage inhibition of ligand binding, Adrenergic α1B (0.1 μM) [1] | Structure (SMILES) |
| --- | --- | --- | --- | --- | --- | --- | --- | --- | --- | --- | --- | --- | --- | --- | --- | --- | --- |
| 13% | 27% | 30% | 63% | 0.0206 µM | 19% | 33% | 0.303 µM |  |  |  |  |  |  |  |  |  | Cc1ccc2c(c1F)c1c(n2CC(C)(O)c2cccnc2)CCN2CCCC12 (single isomer, unassigned) [87a] |
| 0% | 22% | 54% | 78% | 0.0076 µM | 24% | 40% | 0.0455 µM |  |  |  |  |  |  |  |  |  | CC(O)(Cn1c2c(c3cc(F)cc(Cl)c31)C1CCCN1CC2)c1cccnc1 (single isomer, unassigned) [89c] |
| 76% |  |  | 100% |  | 95% |  |  |  |  |  |  |  |  |  |  |  | Cc1cc(Cl)c2c(c1)c1c(n2CC(O)c2ccncc2)CCN2CCCC12 (single isomer, unassigned) [142b] |
|  | 13% | 0% | 14% |  | −5% | 9% |  |  |  |  |  |  |  |  |  | −1% | Cc1ccc2c(c1)c1c(n2CC(C)(O)c2cnc3ccccc3c2)CCN(C)C1 (single isomer, unassigned) [32b] |

More lines, now with the values behind:

| Structure (SMILES) | Percentage inhibition of ligand binding, Adrenergic α1B (0.1 μM) ([1]; 0.1 µM) | Percentage inhibition of ligand binding, Adrenergic α1B (0.3 μM) [1] | Percentage inhibition of ligand binding, Adrenergic α2B (10 nM) [2] | Percentage inhibition of ligand binding, Adrenergic α2B (30 nM) [2] | Ki [2] | Percentage inhibition of ligand binding, Adrenergic α2A (0.1 μM) [3] | Percentage inhibition of ligand binding, Adrenergic α2A (0.3 μM) [3] | IC50 [4] | inhibition at 0.1 µM [1] | inhibition at 0.3 µM [1] | inhibition at 0.01 µM [2] | inhibition at 0.03 µM [2] | inhibition at 0.1 µM [3] | inhibition at 0.3 µM [3] | inhibition at 0.1 µM ([2]; 0.1 μM compound) | Percentage inhibition of ligand binding, Adrenergic α2B (0.1 μM) ([2]; 0.1 μM compound, 0.1 µM) | Percentage inhibition of ligand binding, Adrenergic α1B (0.1 μM) [1] |
| --- | --- | --- | --- | --- | --- | --- | --- | --- | --- | --- | --- | --- | --- | --- | --- | --- | --- |
| Cc1cc(F)cc2c3c(n(CC(C)(O)c4cccnc4)c12)CCN1CCCC31 (single isomer, unassigned) [75d] | 15% | 33% | 55% | 79% | 0.00865 µM | 25% | 41% | 0.381 µM |  |  |  |  |  |  |  |  |  |
| CC(O)(Cn1c2c(c3cc(Cl)cc(F)c31)CN1CCCC1C2)c1ccncc1 (single isomer, unassigned) [86c] |  |  |  |  | 0.013 µM |  |  | 0.699 µM | -5% | 15% | 24% | 53% | -10% | 9% |  |  |  |
| CC(O)(Cn1c2c(c3cc(C(F)(F)F)ccc31)CN1CCCC1C2)c1cccnc1 (single isomer, unassigned) [85a] |  |  |  |  | 0.0326 µM |  |  | 0.832 µM | -9% | 4% | 9% | 42% | -12% | -4% |  |  |  |
| Cc1ccc2c(c1)c1c(n2CC(O)c2ccc(C(=O)NC3CC3)nc2)CCN(C)C1 (stereo not shown) [compound 55, N-cyclopropyl-5-(2-(2,8-dimethyl-3,4-dihydro-1H-pyrido[4,3-b]indol-5(2H)-yl)-1-hydroxyethyl)picolinamide] |  |  |  |  |  |  |  |  | 19% | 44% | 6% | 24% | -4% | 3% | 50% |  |  |
| OC(Cn1c2c(c3cc(F)ccc31)C1CCCN1CC2)c1ccncc1 (single isomer, unassigned) [18c] | 5% | 6% | 17% | 13% |  | 7% | 0% |  |  |  |  |  |  |  |  | 22% |  |
| CC(O)(Cn1c2c(c3cc(Cl)cc(F)c31)CN1CCCC1C2)c1cccnc1 (single isomer, unassigned) [63d] | −5% | −4% | −10% | 5% |  | −13% | −12% |  |  |  |  |  |  |  |  |  |  |
| CC(O)(Cn1c2c(c3cc(F)cc(Cl)c31)C1CCCN1CC2)c1cccnc1 (single isomer, unassigned) [89b] | 3% | 9% | 0% | 1% |  | 8% | 6% |  |  |  |  |  |  |  |  |  |  |
| Cc1ccc2c(c1)c1c(n2CC(O)c2cccnc2)C(O)CN(C)C1 (stereo not shown) [compound 24, 5-(2-Hydroxy-2-pyridin-3-yl-ethyl)-2,8-dimethyl-2,3,4,5-tetrahydro-1H-pyrido[4,3-b]indol-4-ol] |  |  |  |  |  |  |  |  | -3% | 15% | -25% | 0% | -15% | 4% | 29% |  |  |
